These results are taken from US20150126467A1, “USE OF ALGINATE OLIGOMERS TO ENHANCE THE EFFECTS OF ANTIFUNGAL AGENTS” (AlgiIPharma AS, priority 2011, published 2015).

Holding throughout (assay): Standard MIC testing in RPMI medium (Example 3)
Experiment [1] relates to C. krusei 141/03 (candidosis). The format is cell-based, Candida krusei. To be noted: Pichia kudriavzevii, 48 h, read-out: Minimum Inhibitory Concentration (MIC).
For experiment [2], the system named is C. tropicalis 12 (vaginal). The experiment is classed as cell-based. To be noted: Candida tropicalis, 48 h, read-out: Minimum Inhibitory Concentration (MIC).
For experiment [3], the system named is C. tropicalis 519468 (urinary). The experiment is classed as cell-based. The note with it: Candida tropicalis, 48 h, read-out: Minimum Inhibitory Concentration (MIC).
The test system of experiment [4] is C. tropicalis 250/03 (candidosis). The experiment is classed as cell-based. To be noted: Candida tropicalis, 48 h, read-out: Minimum Inhibitory Concentration (MIC).

Values after ≈ are worked out from the molar mass of the structure shown. Read-outs that look alike come from different tables or passages of the source.

Take `OC(Cn1cncn1)(Cn1cncn1)c1ccc(F)cc1F` [Fluconazole, fluconazole]: the MIC was 128 µg/mL (≈ 418 µM) in experiment [1] (0% OligoG); 64 µg/mL (≈ 209 µM) in experiment [1] (2% OligoG); 64 µg/mL (≈ 209 µM) in experiment [1] (6% OligoG); 32 µg/mL (≈ 104 µM) in experiment [1] (10% OligoG); 128 µg/mL (≈ 418 µM) in experiment [2] (0% OligoG); 128 µg/mL (≈ 418 µM) in experiment [2] (2% OligoG). The MIC came out at 4 µg/mL (≈ 13.1 µM) in experiment [2] (6% OligoG); 1 µg/mL (≈ 3.27 µM) in experiment [2] (10% OligoG); 2 µg/mL (≈ 6.53 µM) in experiment [3] (6% OligoG); 1 µg/mL (≈ 3.27 µM) in experiment [3] (10% OligoG); 4 µg/mL (≈ 13.1 µM) in experiment [4] (0% OligoG); 4 µg/mL (≈ 13.1 µM) in experiment [4] (2% OligoG). Further, the MIC in experiment [4] (6% OligoG) came out at 4 µg/mL (≈ 13.1 µM); in experiment [4] (10% OligoG), 2 µg/mL (≈ 6.53 µM).
